# Data published in the supplement of paper PMC10307832.
# What was measured:
# Assay in all cases: relative viability (nuclei count vs DMSO), 5 days (fraction); higher = more cells survive
# JZL-184 = compound: C1CN(CCC1C(C2=CC3=C(C=C2)OCO3)(C4=CC5=C(C=C4)OCO5)O)C(=O)OC6=CC=C(C=C6)[N+](=O)[O-] [JZL-184]
# In short: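 Acceptance criteria were a control CV below 25% and at least one doubling per plate. Lung cancer cell lines in 1536-well plates got five library-drug doses (not always all listed) √10 apart by pinning and were left 5 days with no medium change. Viability divides treated-well nuclei by vehicle-well nuclei and is the median across plates. Nuclei were counted by MetaXpress from 4× Hoechst images.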
# JZL-184 + Bortezomib = compound: C1CN(CCC1C(C2=CC3=C(C=C2)OCO3)(C4=CC5=C(C=C4)OCO5)O)C(=O)OC6=CC=C(C=C6)[N+](=O)[O-] [JZL-184] + CC(C)C[C@H](NC(=O)[C@H](Cc1ccccc1)NC(=O)c1cnccn1)B(O)O [Bortezomib] (partner 0.002 µM)
# In short: (§1)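 Lung cancer cell lines in 1536-well plates were dosed by pin tool the day after seeding, either with one drug alone or with a fixed anchor-drug dose plus five library-drug doses (not always all listed) in √10 steps. After 5 days, cells were fixed and their nuclei stained in one step (final 0.05% Triton X-100, 1% formaldehyde, 1 ug/ml Hoechst), then counted on 4× images. Relative viability is the nuclei count in treated wells divided by that in vehicle wells. Values are medians of duplicate plates.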
# JZL-184 + Navitoclax = compound: C1CN(CCC1C(C2=CC3=C(C=C2)OCO3)(C4=CC5=C(C=C4)OCO5)O)C(=O)OC6=CC=C(C=C6)[N+](=O)[O-] [JZL-184] + CC1(C)CCC(c2ccc(Cl)cc2)=C(CN2CCN(c3ccc(C(=O)NS(=O)(=O)c4ccc(N[C@H](CCN5CCOCC5)CSc5ccccc5)c(S(=O)(=O)C(F)(F)F)c4)cc3)CC2)C1 [Navitoclax] (partner 0.5 µM)
# In short: as §1
# JZL-184 + Foretinib = compound: C1CN(CCC1C(C2=CC3=C(C=C2)OCO3)(C4=CC5=C(C=C4)OCO5)O)C(=O)OC6=CC=C(C=C6)[N+](=O)[O-] [JZL-184] + COc1cc2c(Oc3ccc(NC(=O)C4(C(=O)Nc5ccc(F)cc5)CC4)cc3F)ccnc2cc1OCCCN1CCOCC1 [Foretinib] (partner 0.25 µM)
# In short: as §1
# JZL-184 + Lapatinib = compound: C1CN(CCC1C(C2=CC3=C(C=C2)OCO3)(C4=CC5=C(C=C4)OCO5)O)C(=O)OC6=CC=C(C=C6)[N+](=O)[O-] [JZL-184] + CS(=O)(=O)CCNCc1ccc(-c2ccc3ncnc(Nc4ccc(OCc5cccc(F)c5)c(Cl)c4)c3c2)o1 [Lapatinib] (partner 2 µM)
# In short: as §1
# JZL-184 + Pictilisib = compound: C1CN(CCC1C(C2=CC3=C(C=C2)OCO3)(C4=CC5=C(C=C4)OCO5)O)C(=O)OC6=CC=C(C=C6)[N+](=O)[O-] [JZL-184] + CS(=O)(=O)N1CCN(Cc2cc3nc(-c4cccc5[nH]ncc45)nc(N4CCOCC4)c3s2)CC1 [Pictilisib] (partner 1 µM)
# In short: as §1
# JZL-184 + Crizotinib = compound: C1CN(CCC1C(C2=CC3=C(C=C2)OCO3)(C4=CC5=C(C=C4)OCO5)O)C(=O)OC6=CC=C(C=C6)[N+](=O)[O-] [JZL-184] + C[C@@H](Oc1cc(-c2cnn(C3CCNCC3)c2)cnc1N)c1c(Cl)ccc(F)c1Cl [Crizotinib] (partner 1 µM)
# In short: as §1
# JZL-184 + Linsitinib = compound: C1CN(CCC1C(C2=CC3=C(C=C2)OCO3)(C4=CC5=C(C=C4)OCO5)O)C(=O)OC6=CC=C(C=C6)[N+](=O)[O-] [JZL-184] + C[C@]1(O)C[C@@H](c2nc(-c3ccc4ccc(-c5ccccc5)nc4c3)c3c(N)nccn32)C1 [Linsitinib] (partner 1 µM)
# In short: as §1
# JZL-184 + Alpelisib = compound: C1CN(CCC1C(C2=CC3=C(C=C2)OCO3)(C4=CC5=C(C=C4)OCO5)O)C(=O)OC6=CC=C(C=C6)[N+](=O)[O-] [JZL-184] + Cc1nc(NC(=O)N2CCC[C@H]2C(N)=O)sc1-c1ccnc(C(C)(C)C(F)(F)F)c1 [Alpelisib] (partner 2 µM)
# In short: as §1
# JZL-184 + Olaparib = compound: C1CN(CCC1C(C2=CC3=C(C=C2)OCO3)(C4=CC5=C(C=C4)OCO5)O)C(=O)OC6=CC=C(C=C6)[N+](=O)[O-] [JZL-184] + O=C(c1cc(Cc2n[nH]c(=O)c3ccccc23)ccc1F)N1CCN(C(=O)C2CC2)CC1 [Olaparib] (partner 8 µM)
# In short: as §1
cell line,measurement,setting,value
Calu-6,relative viability,JZL-184; 0.04 µM,1.05
same,relative viability,JZL-184; 0.4 µM,0.981
same,relative viability,JZL-184; 1.265 µM,1.01
same,relative viability,JZL-184; 4 µM,0.971
same,relative viability,JZL-184 + Bortezomib; first compound 0.04 µM,1.11
same,relative viability,JZL-184 + Bortezomib; first compound 0.4 µM,0.925
same,relative viability,JZL-184 + Bortezomib; first compound 1.265 µM,1
same,relative viability,JZL-184 + Bortezomib; first compound 4 µM,1.06
same,relative viability,JZL-184 + Navitoclax; first compound 0.04 µM,0.845
same,relative viability,JZL-184 + Navitoclax; first compound 0.4 µM,0.807
same,relative viability,JZL-184 + Navitoclax; first compound 1.265 µM,0.852
same,relative viability,JZL-184 + Navitoclax; first compound 4 µM,0.798
same,relative viability,JZL-184 + Foretinib; first compound 0.04 µM,0.946
same,relative viability,JZL-184 + Foretinib; first compound 0.4 µM,0.83
same,relative viability,JZL-184 + Foretinib; first compound 1.265 µM,0.887
same,relative viability,JZL-184 + Foretinib; first compound 4 µM,0.855
same,relative viability,JZL-184 + Lapatinib; first compound 0.04 µM,1.14
same,relative viability,JZL-184 + Lapatinib; first compound 0.4 µM,1.04
same,relative viability,JZL-184 + Lapatinib; first compound 1.265 µM,1.02
same,relative viability,JZL-184 + Lapatinib; first compound 4 µM,1.1
same,relative viability,JZL-184 + Pictilisib; first compound 0.04 µM,0.993
same,relative viability,JZL-184 + Pictilisib; first compound 0.4 µM,0.865
same,relative viability,JZL-184 + Pictilisib; first compound 1.265 µM,1
same,relative viability,JZL-184 + Pictilisib; first compound 4 µM,0.91
same,relative viability,JZL-184 + Crizotinib; first compound 0.04 µM,1.08
same,relative viability,JZL-184 + Crizotinib; first compound 0.4 µM,0.709
same,relative viability,JZL-184 + Crizotinib; first compound 1.265 µM,0.776
same,relative viability,JZL-184 + Crizotinib; first compound 4 µM,0.784
same,relative viability,JZL-184 + Linsitinib; first compound 0.04 µM,0.984
same,relative viability,JZL-184 + Linsitinib; first compound 0.4 µM,0.95
same,relative viability,JZL-184 + Linsitinib; first compound 1.265 µM,0.985
same,relative viability,JZL-184 + Linsitinib; first compound 4 µM,0.906
same,relative viability,JZL-184 + Alpelisib; first compound 0.04 µM,1.17
same,relative viability,JZL-184 + Alpelisib; first compound 0.4 µM,0.984
same,relative viability,JZL-184 + Alpelisib; first compound 1.265 µM,0.98
same,relative viability,JZL-184 + Alpelisib; first compound 4 µM,0.886
same,relative viability,JZL-184 + Olaparib; first compound 0.04 µM,0.565
same,relative viability,JZL-184 + Olaparib; first compound 0.4 µM,0.495
same,relative viability,JZL-184 + Olaparib; first compound 1.265 µM,0.534
same,relative viability,JZL-184 + Olaparib; first compound 4 µM,0.623
EBC-1,relative viability,JZL-184; 0.04 µM,1.06
same,relative viability,JZL-184; 0.4 µM,0.992
same,relative viability,JZL-184; 1.265 µM,0.995
same,relative viability,JZL-184; 4 µM,1.03
same,relative viability,JZL-184 + Bortezomib; first compound 0.04 µM,0.595
same,relative viability,JZL-184 + Bortezomib; first compound 0.4 µM,0.514
same,relative viability,JZL-184 + Bortezomib; first compound 1.265 µM,0.558
same,relative viability,JZL-184 + Bortezomib; first compound 4 µM,0.455
same,relative viability,JZL-184 + Navitoclax; first compound 0.04 µM,0.442
same,relative viability,JZL-184 + Navitoclax; first compound 0.4 µM,0.427
same,relative viability,JZL-184 + Navitoclax; first compound 1.265 µM,0.45
same,relative viability,JZL-184 + Navitoclax; first compound 4 µM,0.342
same,relative viability,JZL-184 + Foretinib; first compound 0.04 µM,0.101
same,relative viability,JZL-184 + Foretinib; first compound 0.4 µM,0.0992
same,relative viability,JZL-184 + Foretinib; first compound 1.265 µM,0.0837
same,relative viability,JZL-184 + Foretinib; first compound 4 µM,0.106
same,relative viability,JZL-184 + Lapatinib; first compound 0.04 µM,0.176
same,relative viability,JZL-184 + Lapatinib; first compound 0.4 µM,0.239
same,relative viability,JZL-184 + Lapatinib; first compound 1.265 µM,0.204
same,relative viability,JZL-184 + Lapatinib; first compound 4 µM,0.209
same,relative viability,JZL-184 + Pictilisib; first compound 0.04 µM,0.347
same,relative viability,JZL-184 + Pictilisib; first compound 0.4 µM,0.287
same,relative viability,JZL-184 + Pictilisib; first compound 1.265 µM,0.506
same,relative viability,JZL-184 + Pictilisib; first compound 4 µM,0.364
same,relative viability,JZL-184 + Crizotinib; first compound 0.04 µM,0.21
same,relative viability,JZL-184 + Crizotinib; first compound 0.4 µM,0.189
same,relative viability,JZL-184 + Crizotinib; first compound 1.265 µM,0.195
same,relative viability,JZL-184 + Crizotinib; first compound 4 µM,0.193
same,relative viability,JZL-184 + Linsitinib; first compound 0.04 µM,0.971
same,relative viability,JZL-184 + Linsitinib; first compound 0.4 µM,0.848
same,relative viability,JZL-184 + Linsitinib; first compound 1.265 µM,0.929
same,relative viability,JZL-184 + Linsitinib; first compound 4 µM,0.832
same,relative viability,JZL-184 + Alpelisib; first compound 0.04 µM,0.982
same,relative viability,JZL-184 + Alpelisib; first compound 0.4 µM,0.795
same,relative viability,JZL-184 + Alpelisib; first compound 1.265 µM,0.802
same,relative viability,JZL-184 + Alpelisib; first compound 4 µM,0.754
same,relative viability,JZL-184 + Olaparib; first compound 0.04 µM,0.655
same,relative viability,JZL-184 + Olaparib; first compound 0.4 µM,0.744
same,relative viability,JZL-184 + Olaparib; first compound 1.265 µM,0.671
same,relative viability,JZL-184 + Olaparib; first compound 4 µM,0.666
